Measurements published in PMC2394492 (British Journal of Cancer, 2003).

Legend:
[1] = Plasma pharmacokinetics of 5-FU and FBAL after PVI of 5-FU and oral S-1 in patients; type: in vivo, human
Experimental: Infusion was carried out with the use of a battery-operated pump (STC-508, Terumo Co., Ltd., Tokyo, Japan) for five consecutive days. […] After a washout period of 9 days, patients received S-1 in two divided doses daily for 28 consecutive days. S-1 was administered orally within 1 h after breakfast and supper, at about 0900 and 1900 hours The daily dose of S-1 in terms of tegafur was 80 mg day^−1 in patients with a body surface area (BSA) of <1.25 m^2, 100 mg day^−1 in those with a BSA of ⩾1.25 m^2 to <1.5 m^2, and 120 mg day^−1 in those with a BSA of ⩾1.5 m^2.
On days 2–4, one blood sample was obtained at 0900 hours before the start of the next 24-h cycle. During oral administration of S-1, blood samples were taken on day 1 before the first dose of the day and at 1, 2, 4, 6, and 10 h. On days 2–4 of S-1 treatment, blood samples were taken before administration in the morning and at 4 and 10 h. On day 5, blood samples were obtained at 0, 2, 4, and 10 h. Peripheral blood samples (6 ml per sampling time) were collected in heparinised tubes and centrifuged at 1000 g for 15 min at 4°C. The plasma was stored at −20°C until analysis. Urine was collected from 0 to 24 h after the start of drug administration on day 1 of each treatment and refrigerated during the collection period.

[2] = cited from earlier work
[3] = target: T1, dihydropyrimidine dehydrogenase (DPD) (Homo sapiens, UniProt Q12882); assay: Plasma uracil concentration as surrogate marker of DPD inhibition (pharmacodynamic analysis); type: in vivo; conditions: for AUC of uracil: 10 patients, surrogate marker of DPD inhibition
T1 construct: from tissue; host or cells: patients in vivo (DPD mainly in the liver); plasma sampled
T1 sequence (Q12882 4-1025): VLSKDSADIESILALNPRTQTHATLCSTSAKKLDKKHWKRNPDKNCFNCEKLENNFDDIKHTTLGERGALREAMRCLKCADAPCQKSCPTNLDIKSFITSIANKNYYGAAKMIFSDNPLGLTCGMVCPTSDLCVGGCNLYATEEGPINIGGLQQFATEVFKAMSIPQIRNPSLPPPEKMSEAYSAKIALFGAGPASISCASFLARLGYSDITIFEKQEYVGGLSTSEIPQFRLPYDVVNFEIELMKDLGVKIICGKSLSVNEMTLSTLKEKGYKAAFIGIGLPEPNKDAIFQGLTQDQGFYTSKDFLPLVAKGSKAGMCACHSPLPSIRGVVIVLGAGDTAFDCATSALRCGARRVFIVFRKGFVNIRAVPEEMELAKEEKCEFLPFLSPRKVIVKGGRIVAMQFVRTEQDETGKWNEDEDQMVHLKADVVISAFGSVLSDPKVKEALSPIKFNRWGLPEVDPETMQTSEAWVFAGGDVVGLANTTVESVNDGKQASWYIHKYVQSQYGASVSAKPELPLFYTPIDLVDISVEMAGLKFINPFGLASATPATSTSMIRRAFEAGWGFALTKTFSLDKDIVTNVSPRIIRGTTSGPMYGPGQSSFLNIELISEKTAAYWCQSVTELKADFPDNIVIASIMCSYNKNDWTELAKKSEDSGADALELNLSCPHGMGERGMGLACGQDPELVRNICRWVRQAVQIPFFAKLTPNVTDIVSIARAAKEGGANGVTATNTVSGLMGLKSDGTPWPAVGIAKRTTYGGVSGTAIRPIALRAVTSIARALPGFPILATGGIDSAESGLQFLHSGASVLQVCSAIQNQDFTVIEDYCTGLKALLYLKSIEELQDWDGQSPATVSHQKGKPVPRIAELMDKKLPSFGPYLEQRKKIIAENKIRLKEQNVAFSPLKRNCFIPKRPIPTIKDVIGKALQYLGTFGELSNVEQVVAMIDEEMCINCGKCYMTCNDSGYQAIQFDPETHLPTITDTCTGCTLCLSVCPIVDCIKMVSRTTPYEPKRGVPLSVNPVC
Experimental: All 10 patients received 5-FU by PVI at a rate of 250 mg m^−2 day^−1 via a peripheral vein. Infusion was carried out with the use of a battery-operated pump (STC-508, Terumo Co., Ltd., Tokyo, Japan) for five consecutive days. The assigned daily dose of 5-FU was diluted in 500 ml of normal saline for infusion.
On days 1 and 5 of 5-FU PVI, blood samples were taken at 0 (before administration), 2, 6, and 10 h after the start of the infusion (0900 hours in all patients). On days 2–4, one blood sample was obtained at 0900 hours before the start of the next 24-h cycle. […] On day 5, blood samples were obtained at 0, 2, […], and 10 h. Peripheral blood samples (6 ml per sampling time) were collected in heparinised tubes and centrifuged at 1000 g for 15 min at 4°C. The plasma was stored at −20°C until analysis. Urine was collected from 0 to 24 h after the start of drug administration on day 1 of each treatment and refrigerated during the collection period.
Analysis of 5-FU and uracil was carried out as described by [Matsushima et al (1997)], with minor modification. 5-Fluorouracil and uracil were extracted with ethyl acetate after washing with dichloromethane and were subjected to a reaction to induce their trimethylsilyl derivatives. 5-Fluorouracil and uracil were analysed by electron impact ionisation gas-chromatography/mass-spectrometry (GC–MS). For analysis of 5-FU by GC–MS, stable isotopes were used as internal standards. The measurable ranges of plasma or urine levels were 1–400 ng ml^−1 for 5-FU and 5–2000 ng ml^−1 for uracil. For analysis of FBAL, plasma was deproteinised with ethanol and washed with dichloromethane. F-β-alanine was treated with 2,4-dinitrofluorobenzene to derive its dinitrophenyl ester, and the reaction product was extracted with dichloromethane under acidic conditions. The reaction product was separated by high-pressure liquid chromatography (LC) with a reversed-phase column, and LC/tandem-mass spectrometry was performed with the use of negative ion-electron spray ionisation. DL-norvaline was used as an internal standard. […]

[4] = tested on: dihydropyrimidine dehydrogenase (DPD); conditions: in vitro; background statement, no reference given; cited from earlier work
[5] = patients given 5-FU by PVI, ref Lokich et al, 1989

With `O=c1[nH]cc(F)c(=O)[nH]1` [5-FU, 5-fluorouracil] as the compound, how does the “time to steady state of plasma 5-FU concentration after the start of PVI” value ([1]; PVI of 5-FU) read?
Its value is 2 h.

What about the “AUC0–10 h of 5-FU” value ([1]; plasma, day 5 (abstract)) of the same compound?
Its value is 728 ± 113 ng·h/mL.

And the “dose-limiting toxicity (DLT)” value ([2]; 5-FU by PVI, ref Lokich et al, 1989)?
The value was “HFS”.

And the “incidence of grade 3 leukopenia” value [2, 5]?
The value was 1%.

What about the “incidence of hand–foot syndrome” value [2, 5] of the same compound?
The value was “about 23%”.

And the incidence of stomatitis [2, 5]?
The incidence of stomatitis was “about 23%”.

And the AUC of uracil ([3]; Day 1, 0 to 10 h)?
Its AUC of uracil is 200 ± 60 ng·h/mL.

And the AUC of uracil ([3]; Day 5, 0 to 10 h)?
The AUC of uracil was 252 ± 60 ng·h/mL.

What about the “AUC0–10 h of uracil” value ([3]; day 5 (abstract)) of the same compound?
Its value is 252 ± 60 ng·h/mL.

With `Oc1cc(O)c(Cl)cn1` [CDHP, 5-chloro-2,4-dihydroxypyridine] as the compound, how does the “DPD-inhibitory activity relative to that of uracil” value [4] read?
Its value is 180 fold.

With `CCCCCOC(=O)Nc1nc(=O)n([C@@H]2O[C@H](C)[C@@H](O)[C@H]2O)cc1F` [capecitabine] as the compound, how does the “incidence of grade 3 HFS” value ([2]; capecitabine, ref Van Cutsem et al, 2000, 2001, Hoff et al, 2001) read?
The value was 15–18%.

What about the “incidence of HFS” value ([2]; capecitabine, ref Van Cutsem et al, 2000) of the same compound?
The value was 45%.

And the incidence of cardiotoxicity ([2]; randomised phase II trial, metastatic colorectal cancer, five out of 108, ref Van Cutsem et al, 2000)?
The incidence of cardiotoxicity was 5%.

And the incidence of paresthesia ([2]; randomised phase II trial, metastatic colorectal cancer, ref Van Cutsem et al, 2000)?
Its incidence of paresthesia is 12%.
